2 molecules from publication PMC3222680 (PLoS ONE, 2011) can be followed below.

Where a chain is given by its changes, count along the chain named.

One assay addresses T1, αWT β-αV25′A GlyR (Homo sapiens, UniProt P23415+P48167, A275I/A296P/F268Y/G272Q/L286I/M270L/M271I/P292M/P300G/S295A/T277S/V266M/V273M/V282I/V305A).
T1 construct: The α R218-Q219 and β R242-Q243 are also the joining sites for chimeras constructed between the ECD and TMD; expressed in transfected cells; host or cells: HEK293 (ATCC)
T1 sequence (P23415 29-449 isoform P23415-2): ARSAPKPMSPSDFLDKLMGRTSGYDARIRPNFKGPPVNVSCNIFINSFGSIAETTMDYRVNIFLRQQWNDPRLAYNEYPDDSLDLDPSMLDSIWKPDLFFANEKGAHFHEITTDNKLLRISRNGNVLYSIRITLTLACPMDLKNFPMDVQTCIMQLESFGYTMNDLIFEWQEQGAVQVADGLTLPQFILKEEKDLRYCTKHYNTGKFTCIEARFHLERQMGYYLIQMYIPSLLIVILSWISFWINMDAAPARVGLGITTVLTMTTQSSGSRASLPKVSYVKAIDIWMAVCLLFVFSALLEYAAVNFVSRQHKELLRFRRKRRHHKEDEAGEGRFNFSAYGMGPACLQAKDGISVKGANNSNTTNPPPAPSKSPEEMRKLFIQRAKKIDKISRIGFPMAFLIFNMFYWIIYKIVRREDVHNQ
T1 sequence (P48167+P23415 with tags, fused parts or gaps P48167:V266M/P48167:F268Y/P48167:M270L/P48167:M271I/P48167:G272Q/P48167:V273M/P48167:A275I/P48167:T277S/P48167:V282I/P48167:L286I/P48167:P292M/P48167:S295A/P48167:A296P/P48167:P300G/P23415:V305A): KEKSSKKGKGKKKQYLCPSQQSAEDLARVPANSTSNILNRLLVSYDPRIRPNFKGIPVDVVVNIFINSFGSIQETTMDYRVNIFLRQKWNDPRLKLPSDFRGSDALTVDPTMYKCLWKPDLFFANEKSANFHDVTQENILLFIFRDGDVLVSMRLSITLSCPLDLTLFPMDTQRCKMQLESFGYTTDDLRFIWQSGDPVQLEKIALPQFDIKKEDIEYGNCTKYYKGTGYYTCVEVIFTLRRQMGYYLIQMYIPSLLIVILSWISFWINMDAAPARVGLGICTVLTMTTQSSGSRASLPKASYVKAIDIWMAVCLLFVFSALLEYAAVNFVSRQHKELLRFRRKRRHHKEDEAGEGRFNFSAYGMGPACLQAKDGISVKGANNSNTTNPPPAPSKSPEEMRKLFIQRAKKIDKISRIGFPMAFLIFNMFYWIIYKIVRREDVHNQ
Type of assay: cell-based. As for the experimental part:
(§1) The human GlyR α1 and β subunit cDNAs were subcloned into the pcDNA3.1zeo+ (Invitrogen) or pGEMHE [44] plasmid vectors for expression in HEK293 cells or Xenopus oocytes, respectively. Site-directed mutagenesis and chimera construction were performed using the QuickChange (Stratagene, La Jolla, CA, USA) mutagenesis and multiple-template-based sequential PCR protocols, respectively.
(§2) For the β-α chimeras used for determining the effect of hyperekplexia-mimicking mutations on α1 β GlyR channel function, the Thr at the M2 6′ position was replaced by a Cys. […] Through such a modification, picrotoxin resistance was used to distinguish the heteromeric α1 β-α GlyR from the homomeric α1 GlyR when the α1 and β-α subunits were co-expressed.
(§3) The effects of the hyperekplexia-mimicking mutations, K24′A, V25′A and Y27′A, were examined on GlyRs expressed in HEK293 cells (ATCC). Details of the HEK293 cell culture, GlyR expression and electrophysiological recording of the HEK293 cells are described elsewhere. Briefly, HEK293 cells were maintained in DMEM supplemented with 10% fetal bovine serum. Cells were transfected using a calcium phosphate precipitation protocol. When co-transfecting the α1 together with the β or any other chimera subunits, their respective cDNAs were combined in a ratio of 1∶10. In addition, the pEGFP-N1 (Clontech) was co-transfected to facilitate identifying the transfected cells. […] Cells were treated with external Ringer's solution and internal CsCl solution [30]. Cells were voltage-clamped at −40 mV. When the heteromeric GlyRs were expressed, the picrotoxin sensitivity was tested to confirm that the majority of receptors are heteromers, [30].
(§4) Results are expressed as mean±standard error of the mean of three or more independent experiments. […] Statistical significance was determined using the Student's t-test.

A further assay addresses T2, αK24′A β-αWT GlyR (Homo sapiens, UniProt P23415+P48167, K304A).
T2 construct: The α R218-Q219 and β R242-Q243 are also the joining sites for chimeras constructed between the ECD and TMD; expressed in transfected cells; host or cells: HEK293 (ATCC)
T2 sequence (P23415 29-449 isoform P23415-2 K304A): T1 sequence (P23415 29-449 isoform P23415-2) with K276A
T2 sequence (P48167+P23415 with tags, fused parts or gaps P48167:V266M/P48167:F268Y/P48167:M270L/P48167:M271I/P48167:G272Q/P48167:V273M/P48167:A275I/P48167:T277S/P48167:V282I/P48167:L286I/P48167:P292M/P48167:S295A/P48167:A296P/P48167:P300G): T1 sequence (P48167+P23415 with tags, fused parts or gaps P48167:V266M/P48167:F268Y/P48167:M270L/P48167:M271I/P48167:G272Q/P48167:V273M/P48167:A275I/P48167:T277S/P48167:V282I/P48167:L286I/P48167:P292M/P48167:S295A/P48167:A296P/P48167:P300G/P23415:V305A) with A301V
The assay is classed as cell-based. As for the experimental part: as §1, §2, §3, §4

Setting [1] is: αWT β-αV25′A, HEK293, with glycine at EC50 of α1 homomer.
[2] abbreviates: αK24′A β-αWT, HEK293, with glycine at EC50 of α1 homomer.

At αWT β-αV25′A GlyR, `NCC(=O)O` [glycine] displayed an Imax of 11.0±1.1 nA and a nH of 2.2±0.3. Besides, at αK24′A β-αWT GlyR, the Imax was determined as 8.9±1.9 nA and the nH was determined as 2.0±0.3.

As to picrotoxin [PTX], at αWT β-αV25′A GlyR (setting [1]), the “10uM PTX inhibition (%)” value amounted to 8.8±1.6% and the “100uM PTX inhibition (%)” value was 31±1%. Also, at αK24′A β-αWT GlyR (setting [2]), the “10uM PTX inhibition (%)” value was found to be 10.0±2.2% and the “100uM PTX inhibition (%)” value came out at 23±4%.
